Measured values: the supplement of paper PMC10307832

How the values were obtained:
Test in all cases: relative viability (nuclei count vs DMSO), 5 days (fraction); higher = more cells survive
CUDC-101 + Bortezomib = compound: C#Cc1cccc(Nc2ncnc3cc(OC)c(OCCCCCCC(=O)NO)cc23)c1 [CUDC-101] + CC(C)C[C@H](NC(=O)[C@H](Cc1ccccc1)NC(=O)c1cnccn1)B(O)O [Bortezomib] (partner 0.002 µM)
Outline: (§1)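 Dosing by pin tool came one day after lung cancer cell lines were seeded in 1536-well plates, using either one drug or a fixed anchor-drug dose plus five library-drug doses (not always all listed) in √10 steps. After 5 days, nuclei were counted on 4× images. Relative viability is treated-well nuclei count divided by vehicle-well nuclei count, and values are medians of duplicate plates.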

CUDC-101 + Vorinostat = compound: C#Cc1cccc(Nc2ncnc3cc(OC)c(OCCCCCCC(=O)NO)cc23)c1 [CUDC-101] + O=C(CCCCCCC(=O)Nc1ccccc1)NO [Vorinostat] (partner 1 µM)
Outline: as §1

[1] = compound: C1=CC=C2C(=C1)N=C(S2)C(C#N)C3=NC(=NC=C3)NCCC4=CN=CC=C4 + CC(C)C[C@H](NC(=O)[C@H](Cc1ccccc1)NC(=O)c1cnccn1)B(O)O [Bortezomib] (partner 0.002 µM)
Outline: as §1

[2] = compound: C1=CC=C2C(=C1)N=C(S2)C(C#N)C3=NC(=NC=C3)NCCC4=CN=CC=C4 + CS(=O)(=O)N1CCN(Cc2cc3nc(-c4cccc5[nH]ncc45)nc(N4CCOCC4)c3s2)CC1 [Pictilisib] (partner 1 µM)
Outline: as §1

Cell Line	relative viability (CUDC-101 + Bortezomib; first compound 0.01 µM)	relative viability (CUDC-101 + Bortezomib; first compound 0.03162 µM)	relative viability (CUDC-101 + Bortezomib; first compound 0.1 µM)	relative viability (CUDC-101 + Bortezomib; first compound 0.3162 µM)	relative viability (CUDC-101 + Bortezomib; first compound 1 µM)	relative viability (CUDC-101 + Vorinostat; first compound 0.01 µM)	relative viability (CUDC-101 + Vorinostat; first compound 0.03162 µM)	relative viability (CUDC-101 + Vorinostat; first compound 0.1 µM)	relative viability (CUDC-101 + Vorinostat; first compound 0.3162 µM)	relative viability (CUDC-101 + Vorinostat; first compound 1 µM)	relative viability ([1]; first compound 0.005 µM)	relative viability ([1]; first compound 0.01581 µM)	relative viability ([1]; first compound 0.05 µM)	relative viability ([1]; first compound 0.1581 µM)	relative viability ([1]; first compound 0.5 µM)	relative viability ([2]; first compound 0.005 µM)	relative viability ([2]; first compound 0.01581 µM)	relative viability ([2]; first compound 0.05 µM)	relative viability ([2]; first compound 0.1581 µM)	relative viability ([2]; first compound 0.5 µM)
HARA	1.21	1.09	1.08	0.918	0.709	0.505	0.678	0.577	0.478	0.22	1.22	1.04	1.14	1.18	0.859	0.324	0.349	0.368	0.611	0.298
201T	1.08	1.06	1.09	1.11	1.08	1.02	0.954	0.937	0.982	0.842	1.1	1.09	1.09	1.09	1.11	0.7	0.69	0.621	0.662	0.698
EMC-BAC-2	1.06	1.05	1.09	1.18	0.869	0.506	0.449	0.507	0.309	0.191	0.998	1.05	1.06	1.12	0.945	0.492	0.512	0.484	0.572	0.501
NCI-H441	0.662	0.433	0.541	0.593	0.335	0.968	0.915	0.784	0.937	0.618		0.414	0.679	0.912	0.743		0.458	0.549	0.55	0.494
NCI-H727	0.823	0.967	0.775	0.993	0.397	1.28	1.15	0.958	1.04	0.642	0.526	0.76	0.819	1.13	0.624	0.553	0.304	0.299	0.473	0.37
NCI-H1993	1.19	1.12	0.782	0.995	0.611	0.748	1.01	0.688	0.666	0.426	1.02	1.07	0.886	1.1	1.06	0.862	0.963	0.848	0.64	0.745
ChaGo-K-1	1.22	1.31	0.821	1.03	0.963	0.756	0.727	0.79	0.698	0.578	0.87		0.936	1.1	0.845	0.655		0.445	0.953	0.662
NCI-H3122	1.06	0.984	1.05	1.01	1.01	1.04	0.912	0.895	1.01	0.685	0.877	1.05	0.958	1.05	1.07	0.62	0.655	0.603	0.613	0.64
NCI-H1651	1.04	0.946	0.957	0.912	0.921	0.539	0.545	0.578	0.51	0.497	0.636	0.924	0.935	1.05	0.957	0.364	0.585	0.68	0.815	0.565
NCI-H1355	1.31	1.17	1.24	1.18	1.03	0.693	0.663	0.636	0.62	0.497	1.1	1.1	1.22	1.27	1.1	0.535	0.388	0.365	0.503	0.439
NCI-H596	1.13	1.13	1.18	0.98	1	0.569	0.605	0.501	0.735	0.501	0.72	0.969	0.938	1.43	1.16	0.378	0.349	0.383	0.46	0.392
NCI-H23	0.922	0.935	1.18	1.13	0.955	0.71	0.731	0.683	0.661	0.335		0.917	1.01	1.37	0.92		0.464	0.455	0.508	0.511
HCC-366	1.04	0.988	1.07	1.07	0.996	0.393	0.312	0.29	0.313	0.254	0.85	1.1	1.07	1.3	0.927	0.138	0.196	0.181	0.159	0.117
NCI-H2126	1.12	1.14	1.1	1.08	1.01	0.862	0.777	0.713	0.704	0.452	1.07	1.15	1.06	1.16	1.11	0.499	0.493	0.417	0.526	0.487
LU99A	1.36	1.14	1.04	0.998	0.635	0.529	0.477	0.452	0.389	0.219	1.08	1.14	1.1	1.27	1.43	0.281	0.354	0.336	0.394	0.338
NCI-H650	0.834	0.917	0.87	0.459	0.643	0.547	0.517	0.414	0.456	0.51	0.482	0.528	0.748	1.22	0.778	0.728	0.845	0.804	0.934	0.901
